Laboratory results published in patent US9233984B2, “Compound, method for producing compound, and method for purifying compound” (Nippon Soda Co., Ltd., priority 2012, dated 2016).
Values joined by “and” are separate entries in the source; they are usually repeats but may differ in a detail not shown here. Identical values can stand only once.

Assay: Isomerization reaction rate under irradiation with light (365 nm, high-pressure mercury lamp) of 1% by weight aqueous solutions
Assay type: physicochemical
Settings: 1% by weight aqueous solution
Method: The reaction rates of the isomerization reaction were compared for the TZOX and TZOX-Na salt synthesized in Example 1. More specifically, 1% by weight aqueous solutions of each were prepared followed by irradiating these aqueous solutions with light (wavelength: 365 nm) for 3 hours using a high-pressure mercury lamp. A portion of the aqueous solutions were sampled prior to the start of irradiation with light (irradiation time: 0 hours) and at 1, 2 and 3 hours after the start of irradiation with light followed by an investigation of the abundance ratios of the (E) form and (Z) form. Although the abundance ratio of the (Z) form in the case of TZOX-Na prior to irradiation with light was only 0.33%, it increased to 34% after 1 hour had elapsed since the start of irradiation and remained essentially unchanged after that point. In other words, it was determined that the TZOX-Na salt reaches equilibrium as a result of being irradiated with light for 1 hour, and that the isomerization rate thereof is extremely fast. In contrast, in the case of TZOX, the abundance ratio of the (Z) form only finally reached 35% after 3 hours had elapsed since the start of irradiation, and it was determined that at least 2 hours are required to reach equilibrium.

[1] = irradiation time 0 hours (prior to irradiation)

Row | Irradiation time required to reach equilibrium of (E)/(Z) isomerization | Abundance Ratio (%) (E) form [1] | Abundance Ratio (%) (Z) form [1] | Abundance Ratio (%) (E) form (irradiation time 1 hour) | Abundance Ratio (%) (Z) form (irradiation time 1 hour) | Abundance Ratio (%) (E) form (irradiation time 2 hours) | Abundance Ratio (%) (Z) form (irradiation time 2 hours) | Abundance Ratio (%) (E) form (irradiation time 3 hours) | Abundance Ratio (%) (Z) form (irradiation time 3 hours) | SMILES
1 | at least 2 hour | 99.52 | 0.45 | 83.99 | 13.7 | 70.39 | 28.13 | 62.8 | 35% and 35.3% | Cn1nnnc1C(=NO)c1ccccc1 [TZOX, (1-methyl-1H-tetrazol-5-yl)(phenyl)methanoneoxime]
2 | 1 h | 99.43 | 0.33 | 64.0 | 34 | 63.0 | 33.9 | 66.6 | 32.3% | Cn1nnnc1C(=N[O-])c1ccccc1.[Na+] [TZOX-Na]
